Assay results: ChEMBL document CHEMBL5390250, “Synthesis and biological evaluation of bi-modal BODIPY-conjugated Hoechst applicable for Auger-electron and photodynamic cancer therapy” (Bioorg Med Chem Lett, 2023)
Each block holds one molecule with its values, some of them ahead of it. Calls of active or inactive are those of the source. The calls are words filed in the database; no cut-off is given here.

Assays:
HeLa [1] = assay: Antiproliferative activity against human HeLa cells assessed as auger electron mediated reduction in cell viability measured after 6 hrs by MTT assay; assay type: functional, cell-based; settings: dose <= 18.5 kBq, tested as the 125I-labelled form
[2] = Induction of singlet oxygen production in MeOH assessed as singlet oxygen quantum yield; assay type: functional
[3] = Absorption property of compound in MeOH assessed as maximal wavelength by spectroscopic analysis; assay type: physicochemical
HeLa [4] = assay: Photocytotoxicity against human HeLa cells assessed as reduction in cell viability preincubated for 24 hrs followed by light irradiation at 525 nm for 6 mins by MTT assay; assay type: functional, cell-based; settings: for Activity: dose <= 1600.0 nM, time 1446.0 min; for IC50: light or radiation study
HeLa [5] = assay: Photocytotoxicity against human HeLa cells assessed as reduction in cell viability at 1600 nM preincubated for 24 hrs followed by light irradiation at 525 nm for 6 mins by MTT assay relative to control; assay type: functional
[6] = Fluorescence property of compound in MeOH assessed as molar extinction coefficient by spectroscopic analysis; assay type: physicochemical
[7] = Induction of singlet oxygen production in MeOH assessed as singlet oxygen quantum yield at 410 nm by DPBF based assay; assay type: functional
HeLa [8] = assay: Induction of DNA damage in human HeLa cells assessed as increase in gamma H2AX foci in nuclei at 18.5 kBq measured after 2 hrs by immmunofluorescence staining based analysis; assay type: functional, cell-based; settings: tested as the 125I-labelled form
HeLa [9] = assay: Antiproliferative activity against human HeLa cells assessed as reduction in cell viability measured after 6 hrs by MTT assay; assay type: functional, cell-based
[10] = Emission property of compound in MeOH assessed as maximal wavelength by spectroscopic analysis; assay type: physicochemical
[11] = Fluorescence property of compound in MeOH assessed as quantum yield by spectroscopic analysis; assay type: physicochemical
HeLa [12] = assay: Photocytotoxicity against human HeLa cells assessed as reduction in cell viability upto 1600 nM measured after 24 hrs under dark condition by MTT assay; assay type: functional, cell-based
HeLa [13] = assay: Induction of DNA damage in human HeLa cells assessed as increase in gamma H2AX foci density in nucleus measured after 2 hrs by immmunofluorescence staining based analysis; assay type: functional, cell-based; settings: dose <= 18.5 kBq, tested as the 125I-labelled form
HeLa [14] = assay: Antiproliferative activity against human HeLa cells assessed as auger electron mediated reduction in cell viability at 18.5 kBq measured after 6 hrs by MTT assay relative to control; assay type: functional
[15] = Drug uptake in human HeLa cells assessed as increase in intracellular fraction measured upto 6 hrs; assay type: ADME, cell-based
[16] = Drug uptake in nucleus of human HeLa cells measured upto 6 hrs; assay type: ADME, subcellular
[17] = Absorption property of compound in MeOH assessed as maximal wavelength; assay type: physicochemical
[18] = Emission property of compound in MeOH assessed as maximal wavelength; assay type: physicochemical
[19] = Fluorescence property of compound in MeOH assessed as molar extinction coefficient; assay type: physicochemical
[20] = Fluorescence property of compound in toluene assessed as quantum yield; assay type: physicochemical

Compound: CN(C)c1ccc2cc3ccc(N(C)C)cc3[n+](CCCCCNC(=O)c3ccc(I)cc3)c2c1
Activity (HeLa [1]): Dose-Dependent Effect

Compound: O=C(O)c1c(Cl)c(Cl)c(Cl)c(Cl)c1-c1c2cc(I)c(=O)c(I)c-2oc2c(I)c(O)c(I)cc12
Activity [2]: 0.76

Activity [3]: 533 nm
Activity [6]: 20600 M⁻¹ cm⁻¹
Activity [10]: 552 nm
Activity [11]: 0.04
Compound: CC1=C(I)C(C)=[N+]2C1=C(c1ccc(C(=O)NCCCCOc3ccc(-c4nc5ccc(-c6nc7ccc(N8CCN(C)CC8)cc7[nH]6)cc5[nH]4)cc3)cc1)c1c(C)c(I)c(C)n1[B-]2(F)F
Activity (HeLa [1]): Dose-Dependent Effect
Activity (HeLa [4]): Dose-Dependent Effect
IC50 (HeLa [4]): 195 nM
Activity (HeLa [5]): 29%
Activity [7]: 0.41
Activity (HeLa [8]): Active
Activity (HeLa [9]): inactive
Activity (HeLa [12]): inactive
Activity (HeLa [13]): Dose-Dependent Effect

Drug uptake [15]: Active
Drug uptake [16]: Active
Compound: CC1=C([125I])C(C)=[N+]2C1=C(c1ccc(C(=O)NCCCCOc3ccc(-c4nc5ccc(-c6nc7ccc(N8CCN(C)CC8)cc7[nH]6)cc5[nH]4)cc3)cc1)c1c(C)c(I)c(C)n1[B-]2(F)F
Activity (HeLa [14]): 43%

Drug uptake [15]: Active
Drug uptake [16]: Active
Compound: CC1=C([125I])C(C)=[N+]2C1=C(c1ccc(C(=O)NCCCCOc3ccc(-c4nc5ccc(-c6nc7ccc(N8CCN(C)CC8)cc7[nH]6)cc5[nH]4)cc3)cc1)c1c(C)cc(C)n1[B-]2(F)F
Activity (HeLa [14]): 60%

Compound: CN(C)c1ccc2cc3ccc(N(C)C)cc3[n+](CCCCCNC(=O)c3ccc([125I])cc3)c2c1
Activity (HeLa [14]): 64%

Activity [17]: 517 nm
Activity [18]: 532 nm
Activity [11]: 0.06
Activity [19]: 22000 M⁻¹ cm⁻¹
Compound: CC1=C(I)C(C)=[N+]2C1=C(c1ccc(C(=O)NCCCCOc3ccc(-c4nc5ccc(-c6nc7ccc(N8CCN(C)CC8)cc7[nH]6)cc5[nH]4)cc3)cc1)c1c(C)cc(C)n1[B-]2(F)F
Activity (HeLa [1]): Dose-Dependent Effect
Activity (HeLa [4]): Dose-Dependent Effect
IC50 (HeLa [4]): 702 nM
Activity (HeLa [5]): 50%
Activity [7]: 0.32
Activity (HeLa [8]): Active
Activity (HeLa [12]): inactive
Activity (HeLa [13]): Dose-Dependent Effect

Activity [20]: 0.11
Compound: CC1=C(I)C(C)=[N+]2C1=C(c1ccc(C(=O)ON3C(=O)CCC3=O)cc1)c1c(C)cc(C)n1[B-]2(F)F
